From paper PMC9735965, “Recovery of Gallium-68 and Zinc from HNO3-Based Solution by Liquid–Liquid Extraction with Arylamino Phosphonates” (Molecules, 2022)

experiment: Aqueous solubility of extractants by qNMR; type: physicochemical; conditions: water, thermodynamic from solid; experimentally determined; in D2O by qNMR
Protocol: A 1 mL volumetric flask was charged with 10–15 mg of the extractant and 1 mL of D2O. The resulting suspension was sonicated for 30 min and the content was centrifuged, filtered through a 0.45 µm syringe filter, and transferred into an NMR tube. A sealed capillary containing an external calibrant (acetanilide for ^1H qNMR and triphenylphosphine for ^31P qNMR) was inserted into the NMR tube and the solubility of extractants 1–9 was determined from their ^1H or ^31P NMR spectra using the formula: Cx = (Ix/Ical) × (Ncal/Nx) × Ccal, where I, N, and C are the integral area, number of nuclei, and the concentration of the extractant (x) and the calibrant (cal), respectively.

solubility at 30 min [µM]	Compound
220	CCCCCCCCOP(=O)(O)C(Nc1ccccc1)c1ccccc1 (stereo not drawn) [Extractant 1, reference compound]
250	CCCCCCCCOP(=O)(O)C(Nc1ccc(OC)cc1)c1cccs1 (stereo not drawn) [Extractant 3]
80	CCCCCCCCOP(=O)(O)C(Nc1ccc(C(F)(F)F)cc1)c1ccc(C(C)(C)C)cc1 (stereo not drawn) [Extractant 4]
40	CCCCCCCCOP(=O)(O)C(Nc1ccc(OC)cc1)c1ccc(C(F)(F)F)cc1 (stereo not drawn) [Extractant 5]
80	CCCCCCCCOP(=O)(O)C(Nc1cc(C(F)(F)F)cc(C(F)(F)F)c1)c1ccc(C(C)(C)C)cc1 (stereo not drawn) [Extractant 7]
1600	COCCOCCOP(=O)(O)C(Nc1cc(C(F)(F)F)cc(C(F)(F)F)c1)c1ccc(C(F)(F)F)cc1 (stereo not drawn) [Extractant 8]
1730	COCCOCCOP(=O)(O)C(Nc1cc(C(F)(F)F)cc(C(F)(F)F)c1)c1cc(C(F)(F)F)cc(C(F)(F)F)c1 (stereo not drawn) [Extractant 9]

Compound	solubility at 30 min [µM]
COP(=O)(O)C(Nc1ccc(C(C)(C)C)cc1)c1ccc(C(C)(C)C)cc1 (stereo not drawn) [Extractant 2]	100
COP(=O)(O)C(Nc1ccc(C(F)(F)F)cc1)c1cc(C(F)(F)F)cc(C(F)(F)F)c1 (stereo not drawn) [Extractant 6]	2600
